Test results published in patent publication US20100003217A1, “Compounds and Pharmaceutical Compositions for the Treatment of Viral Infections” (priority 2008, published 2010).
Each block holds one compound with its values, some of them ahead of it.

How the values were obtained:
Format in all cases: in vitro ADME
[1] = Stability in human liver microsomes; settings: for % Residual Compound 1 / % Residual Compound 2: human liver microsomes 1 mg/mL; for NADPH-dependent metabolism: human liver microsomes; for % Residual compound following incubation with liver microsomes: human microsomes 1 mg/mL; for % Residual Compound 2: 15 min
Procedure: Disappearance of parent Compound 1 was used to evaluate the in vitro metabolism thereof. Relative levels of unchanged Compound 1 were measured by HPLC-UV method 1. Residual Compound 1 is reported as percent difference from time zero or control. The HPLC-UV system was as follows:
Incubations with liver microsomes or cytosol were conducted in a final volume of 0.1 mL per incubation time point. […] The microsomal reaction was initiated by the addition of NADPH (3 mM final concentration). Incubations with (a) no protein or (b) no NADPH served as controls. Reactions were terminated by the addition of 0.2 mL of stop solution (acetonitrile). The samples were vortex-mixed for 30 sec and then centrifuged at 10,000×g for 10 min. The supernatant was dried using a Labconco CentriVap concentrator and the dry residue reconstituted in water, transferred to an HPLC glass vial and analyzed by HPLC-UV method 1 (described above).
(§1) Metabolic stability of the proposed metabolites was conducted by incubating the chemically synthesized standards Compound 2, Compound 4 and Compound 3 as described above for Compound 1. When possible, formation of Compound 5 was verified by incubating samples with alkaline phosphatase (10 U) for 60 min at 37° C.

[2] = Metabolite profiling in monkey liver microsomes; set-up: key: +: peak detected; ?: peak observed; ND: not detected; settings: 50 μM Compound 1, 2 hours
Procedure: (§2) Preliminary identification of putative metabolites was conducted by comparing the retention time of observed metabolites with retention times obtained with chemically synthesized standards using the following HPLC-UV method:
(§3) Incubations with liver microsomes, liver cytosol or pig liver esterase were conducted in a final volume of 0.1 mL per incubation time point. Pooled microsomal protein (1.0 mg/mL) suspended in incubation buffer (0.1 M potassium phosphate, pH 7.4) was incubated for 2 hours at 37° C. with 50 μM Compound 1 from a stock solution in DMSO (final DMSO concentration was 0.1%); the microsomal reaction was initiated by the addition of an NADPH regenerating system (1.3 mM NADP^+, 3.3 mM glucose-6-phosphate, 0.4 U/ml glucose-6-phosphate dehydrogenase, and 3.3 mM MgCl2, final concentrations). Incubations with no NADPH or no protein served as controls. Reactions were terminated by the addition of 0.1 mL of stop solution (acetonitrile). The samples were vortex-mixed for 30 sec and then centrifuged at 10,000×g for 10 min. The supernatant was dried using a Labconco CentriVap concentrator and the dry residue reconstituted in water, transferred to an HPLC glass vial and analyzed by HPLC-UV method 2 (described above).
(§4) Results: Preliminary identification was accomplished by comparing LC elution of metabolites with that of available synthetic standards of putative metabolites (FIG. 2). Metabolites U1, U2 and U3 were characterized based on the retention times.

pig liver esterase = assay: Incubation with pig liver esterase; settings: for Residual compound following incubation with pig liver esterase: Esterase 14 U, 60 min, 10 μM
Procedure: (§5) Pig liver esterase (14 U) suspended in incubation buffer (0.1 M potassium phosphate, pH 7.4) was incubated for 60 min at 37° C. with 10 μM Compound 1 from a stock solution in DMSO (final DMSO concentration was 0.1%); reaction was initiated with the addition of test article. Incubations with no protein served as controls. Reactions were terminated by the addition of 0.1 mL of stop solution (acetonitrile). The samples were vortex-mixed for 30 sec and then centrifuged at 10,000×g for 10 min. The supernatant was dried using a Labconco CentriVap concentrator and the dry residue reconstituted in water, transferred to an HPLC glass vial and analyzed by HPLC-UV method 2 (described above).
as §1

[3] = Incubation with human liver cytosol; settings: human cytosol 1 mg/mL, 2 hours, 10 μM
Procedure: as §5, with “Pooled” for “Pig”, “cytosol (1.0 mg protein/mL)” for “esterase (14 U)”, “2 hours” for “60 min”, “control.” for “controls.”
as §1

[4] = Metabolite profiling in human liver microsomes; set-up: key: +: peak detected; ?: peak observed; ND: not detected; settings: 50 μM Compound 1, 2 hours
Procedure: as §2, §3, §4

- % Residual Compound 2 ([1]; 10 μM, NADPH): 0%
- % Residual Compound 2 ([1]; 10 μM, No Cofactor): 0%
- Residual compound following incubation with pig liver esterase (pig liver esterase): 0%
- Residual compound following incubation with liver cytosol [3]: 0%
SMILES: C[C@@]1(O)[C@H](O)[C@@H](COP(=O)(O)NCc2ccccc2)O[C@H]1n1cnc2c(=O)[nH]c(N)nc21 [Compound 2, [(2R)-2-methyl-β-D-ribofuranosyl]guanine-N-benzylaminyl-5′-monophosphate]

- In vitro metabolite profile in microsomes following incubation with Compound 1 (peak detection) [2]: +
- In vitro metabolite profile in microsomes following incubation with Compound 1 (peak detection) [4]: +
SMILES: C[C@@]1(O)[C@H](O)[C@@H](COP(=O)(O)O)O[C@H]1n1cnc2c(=O)[nH]c(N)nc21 [Compound 5, [(2R)-2-methyl-β-D-ribofuranosyl]guanine 5′-monophosphate]

Second part, the compound before the results:

SMILES: CC(C)(CO)C(=O)SCCOP(=O)(NCc1ccccc1)OC[C@H]1O[C@@H](n2cnc3c(=O)[nH]c(N)nc32)[C@](C)(O)[C@@H]1O (mixture of isomers) [Compound 1, 3-hydroxy-2,2-dimethyl-thiopropionic acid S-(2-{[(2R,3R,4R,5R)-5-(2-amino-6-oxo-1,6-dihydro-purin-9-yl)-3,4-dihydroxy-4-methyl-tetrahydro-furan-2-ylmethoxy]-benzylamino-phosphoryloxy}-ethyl) ester]
- % Residual Compound 1 ([1]; 10 μM, 0 min, NADPH): 100%
- % Residual Compound 1 ([1]; 10 μM, 0 min, No Cofactor): 100%
- % Residual Compound 1 ([1]; 10 μM, 30 min, NADPH): 52%
- % Residual Compound 1 ([1]; 10 μM, 30 min, No Cofactor): 100%
- % Residual Compound 1 ([1]; 10 μM, 60 min, NADPH): 34%
- % Residual Compound 1 ([1]; 10 μM, 60 min, No Cofactor): 94%
- NADPH-dependent metabolism ([1]; NADPH, 60 min, 10 μM): 66%
- In vitro metabolite profile in microsomes following incubation with Compound 1 (peak detection) [2]: +
- Residual compound following incubation with pig liver esterase (pig liver esterase): 75%
- Compound 1 converted to Compound 2 (pig liver esterase; pig liver esterase, 60-min incubation): 25%
- Residual compound following incubation with liver cytosol [3]: 100%
- In vitro metabolite profile in microsomes following incubation with Compound 1 (peak detection) [4]: +

SMILES: CC(C)(CO)C(=O)SCCOP(N)(=O)OC[C@H]1O[C@@H](n2cnc3c(=O)[nH]c(N)nc32)[C@](C)(O)[C@@H]1O (mixture of isomers) [Compound 3, {9-[(2R)2-C-methyl-β-D-ribo-furanosyl]-guanin}-5′-yl-O-(hydroxy-tert-butyl-S-acyl-2-thioethyl) phosphoramidate]
- NADPH-dependent metabolism ([1]; 60 min, 50 μM): 20-30%
- % Residual compound following incubation with liver microsomes ([1]; 60 min, 50 μM, NADPH): 82%
- % Residual compound following incubation with liver microsomes ([1]; 60 min, 50 μM, No Cofactor): 103%
- Residual compound following incubation with pig liver esterase (pig liver esterase): 97%
- Residual compound following incubation with liver cytosol [3]: 100%

SMILES: C[C@@]1(O)[C@H](O)[C@@H](CO)O[C@H]1n1cnc2c(=O)[nH]c(N)nc21 [2′-C-methyl guanosine, 9-(2-C-methyl-β-D-ribofuranosyl)guanine, reference compound]
- In vitro metabolite profile in microsomes following incubation with Compound 1 (peak detection) [2]: +
- In vitro metabolite profile in microsomes following incubation with Compound 1 (peak detection) [4]: +
